Test results as given in patent US20240172750A1, “5-Fluoro-4-Imino-3-Methyl-1-Tosyl-3,4-Dihydropyrimidin-2(1H)-One for Controlling Plant Diseases” (Adama Makhteshim Ltd., priority 2021, published 2024).

Assays:
Botrytis cinerea = assay: Grey mould in strawberry, pot trial, foliar treatment; type: in vivo; settings: 250 OD at 450 g ai/ha, 3 applications, last assessment
Method: The compound of formula I 250 OD was tested at different doses, namely 400, 450 and 500 g ai/ha as depicted in the table below and compared to an untreated control as well as two reference products, SCALA (pyrimethanil 400 g/L) at 1000 g ai/ha and SIGNUM (boscalid+pyraclostrobin 26.7+[…]) at 600 g ai/ha.
Botrytis cinerea was artificial inoculated by spraying the inoculum on the leaves 3-4 days before the application.
To test for fungicidal control of Botrytis cinerea, the strawberry plants, grown in pots, were sprayed with each of the above treatments. 5 pots of 22 cm of diameter (the soil used for the trial is a mix of peat and perlite) with 1 plant each were used, 1 pot per replicate (each treatment is made of 4 replicates) was considered.
Each of the treatments was applied 3 times (ABC) according to the disease development as follows: A, early curative (before the disease symptoms appear; 3-4 days after the artificial inoculation), B, 7-10 days from A and C, to be evaluated in function of the disease development (7-10 days from B).
At the first symptoms the following parameters were assessed: • percentage of affected leaf area (% severity) • percentage of affected leaves (% incidence) • percentage of affected fruit area (% severity) • percentage of affected fruits (% incidence)

Honeybee [1] = assay: Ecotoxicity: honeybee, acute oral; type: in vivo
Text: (§1) The ecotoxicity of flumetylsulforim was investigated in numerous studies in accordance with the strict requirements for the approval of active substances in the EU.

Green alga = assay: Ecotoxicity: algae, long-term; type: in vivo; settings: wheats and barley at 2 × 100 g/ha
Text: as §1

[2] = Ecotoxicity: algae, long-term; type: in vivo; settings: in vivo, Green alga
Text: as §1

Honeybee [3] = assay: Ecotoxicity: honeybee, chronic oral; type: in vivo
Text: as §1

Phytophtora infestans = type: in vivo; settings: potato; 150 g ai/ha vs CUPRIZOL S 330 g ai/ha
M. fijiensis = assay: Black sigatoka on banana plants in climatic chamber; type: in vivo, Mycosphaerella fijiensis
Method: The banana plants used for this experimentation were obtained from vitro-plants Cavendish type furnished by VITROPIC S.A. (France). One-month old plants (2 fully deployed leaves: F2 (oldest leaf) and F1 and the cigar leaf) are treated (see details in the table below) were inoculated with a calibrated mycelial seed-inoculum of a mixture of 4 M. fijiensis strains (for each treatment, 3 repetitions (banana plants) are considered). Banana leaves of each plant were treated on their upper (adaxial) and lower (abaxial) face and then incubated for one hour under a laminar flow in order to let dry the fungicide droplets. After inoculation, banana plants were transferred in climatic chamber: 25° C. day/18° C. night, photoperiod of 16 h light/8 h dark and 100% Relative Humidity. From 28 days to 56 days post inoculation (dpi) each banana plants is observed and the disease intensity severity (DSI: Disease Severity Index) is evaluated over time in order to determine the AUDPC (Area Under Disease Progress Curve)—Table 12, and the fungicidal efficacy expressed in percent of the untreated control—Table 13.

Honeybee [4] = assay: Ecotoxicity: honeybee, chronic larvae; type: in vivo
Text: as §1

Onion = assay: Non-target terrestrial plants, vegetative vigour; type: in vivo
Text: as §1

Carrot = assay: Non-target terrestrial plants, vegetative vigour; type: in vivo
Text: as §1

Sugar beet = assay: Non-target terrestrial plants, vegetative vigour; type: in vivo
Text: as §1

Oil seed rape = assay: Non-target terrestrial plants, vegetative vigour; type: in vivo
Text: as §1

Maize [5] = assay: Non-target terrestrial plants, vegetative vigour; type: in vivo
Text: as §1

Sunflower = assay: Non-target terrestrial plants, vegetative vigour; type: in vivo
Text: as §1

Common oat = assay: Non-target terrestrial plants, vegetative vigour; type: in vivo
Text: as §1

Soybean = assay: Non-target terrestrial plants, vegetative vigour; type: in vivo
Text: as §1

Cucumber = assay: Non-target terrestrial plants, vegetative vigour; type: in vivo
Text: as §1

Ryegrass = assay: Non-target terrestrial plants, vegetative vigour; type: in vivo
Text: as §1

Bobwhite quail [6] = assay: Ecotoxicity: birds, reproduction; type: in vivo
Text: as §1

Honeybee [7] = assay: Ecotoxicity: honeybee, acute contact; type: in vivo
Text: as §1

Bobwhite quail [8] = assay: Ecotoxicity: birds, acute; type: in vivo
Text: as §1

[9] = test system: Microsphaera diffusa (powdery mildew)
Method: Microsphaera diffusa (powdery mildew) is artificially inoculated by spraying the inoculum on the leaves few days after the application.
To test for fungicidal control of Microsphaera diffusa (powdery mildew), the soybean plants, grown in pots, are sprayed at V2 with each of the above treatments. 5 pots with 3 soybean plants each are considered, each treatment counts for 4 replicates.
Between 14 and 21 days from the inoculation, the severity (%) of the infection is assessed.

Maize [10] = assay: Non-target terrestrial plants, seedling emergence; type: in vivo
Text: as §1

[11] = wheats and barley at 2 × 100 g/ha

Cc1ccc(S(=O)(=O)n2cc(F)c(=N)n(C)c2=O)cc1 [compound of formula I, 5-fluoro-4-imino-3-methyl-1-tosyl-3,4-dihydropyrimidin-2(1H)-one]
control (fungicide efficacy on leaf severity) (Botrytis cinerea): more than 90%
LD50 (Honeybee [1]): LD50 > 3.727 μg/bee
Risk at current use pattern (Green alga): Acceptable
EC50 [2]: > 10 µg/mL
LD50 (Honeybee [3]): LD50 = 16.0 μg/bee/d
control versus reference treatment (Phytophtora infestans): significant better control than the reference treatment
control of Mycosphaerella fijiensis in banana (conclusion) (M. fijiensis): efficiently controlling
NOEC (Honeybee [4]): NOEC > 250 mg/kg diet
Risk at current use pattern (Honeybee [4]; [11]): Acceptable
ER50 (Onion): ER50 > 189 g/ha
Risk at current use pattern (Onion; [11]): Acceptable
ER50 (Carrot): ER50 > 189 g/ha
Risk at current use pattern (Carrot; [11]): Acceptable
ER50 (Sugar beet): ER50 > 189 g/ha
Risk at current use pattern (Sugar beet; [11]): Acceptable
ER50 (Oil seed rape): ER50 > 189 g/ha
Risk at current use pattern (Oil seed rape; [11]): Acceptable
ER50 (Maize [5]): ER50 > 189 g/ha
Risk at current use pattern (Maize [5]; [11]): Acceptable
ER50 (Sunflower): ER50 > 189 g/ha
Risk at current use pattern (Sunflower; [11]): Acceptable
ER50 (Common oat): ER50 > 189 g/ha
Risk at current use pattern (Common oat; [11]): Acceptable
ER50 (Soybean): ER50 > 189 g/ha
Risk at current use pattern (Soybean; [11]): Acceptable
ER50 (Cucumber): ER50 > 189 g/ha
Risk at current use pattern (Cucumber; [11]): Acceptable
ER50 (Ryegrass): ER50 > 189 g/ha
Risk at current use pattern (Ryegrass; [11]): Acceptable
NOED (Bobwhite quail [6]): NOED > 67.8 mg/kg bw/d
Risk at current use pattern (Bobwhite quail [6]; [11]): Acceptable
LD50 (Honeybee [7]): LD50 > 50 μg/bee
LD50 (Bobwhite quail [8]): LD50 > 2000 mg/kg bw
phytotoxicity ([9]; in vivo): no significant phytotoxicity
control of Microsphaera diffusa ([9]; soybean, 50-200 g ai/ha): effectively controls
ER50 (Maize [10]): ER50 > 189 g/ha
Risk at current use pattern (Maize [10]; [11]): Acceptable
